Key:
[1] = system: MCF-7 (Human Breast Cancer Cell Line); assay: SRB antiproliferative assay, MCF-7; format: cell-based; conditions: Homo sapiens, MCF7, MCF-7, 48 h, read-out: GI50
Procedure: Following an extensive review of the literature, we selected human breast cancer (MCF-7, MDA-MB-231) and lung cancer (A549) cell lines to evaluate the anticancer potential of the synthesized compounds, and some compounds with good anti-proliferation activity were again tested to evaluate their cytotoxic potential on A-549, MCF-7, and MDA-MB-231. The same were also tested on one non-cancerous/normal (HEK-293) cell line. All the cell lines for the required screening were developed in a suitable medium comprising 10% FBS and 2mM L-glutamine. Cancerous and non-cancerous/normal cell lines were selected for the cell proliferation and cytotoxicity assay and maintained with 5% CO2 at 37 °C in a CO2 incubator with 100% relative humidity for one complete day before the addition of experimental drugs.
Antiproliferative activity through an SRB assay was performed for all the synthesized compounds on A-549 and MCF-7 cell lines. Around 5000 cells/well were quarantined into a 96-well microtiter plate in 100 μL. The synthesized compounds were solubilized in DMSO and diluted to different concentrations before use. The final-drug-concentration aliquots were poured into microtiter wells, and the plates were incubated for 48 h in regular conditions. After adding the final drug concentration, the cells were allowed to set in place and incubated for 60 min. A total of 50 µL of SRB solution (0.4% w/v) in 1% CH3COOH was poured into each well. The plates were then incubated for 20 min at RT. During subsequent staining, the unbounded dye was removed, and the plate reader recorded the eluted bound stain at 540 nm with a 690 nm reference wavelength. The assay was performed precisely using the appropriate reagents and reaction situation, as per the reported procedure. ADR was selected as the reference drug.

MCF-7 cells = assay: Apoptosis assay, annexin V/PI flow cytometry; format: cell-based, human; conditions: 24 h
Procedure: Qualitative analysis of different stages of apoptosis in MCF-7 cells using AO/EtBr dual staining was further quantitatively validated using annexin V/PI staining. Annexin V binds with the exposed phosphatidyl serine of apoptotic cells in a calcium-dependent manner and permits the determination of a number of cells in different stages of apoptosis. At the same time, PI binds with the nucleic acid of dead cells. In brief, cells were plated in a 6-well cell culture plate followed by exposure to lower, IC50, and higher concentrations of compound VI(i), as described in the above experiments. Following 24 h of incubation, treated cells were harvested using […] EDTA; then, annexin V/PI staining was performed, which was incubated for 30 min at 37 °C. The population of the apoptotic cells was examined by evaluating the cell suspension using a flow cytometer.

[2] = MCF-7, IC50 concentration (60 µg/mL)
[3] = MCF-7, lower concentration (40 µg/mL)

**Q.** For COc1ccc(-c2cnn(CCCCCC(=O)NO)n2)cc1 [VI(i), N-Hydroxy-6-(4-(4-methoxyphenyl)-2H-1,2,3-triazol-2-yl)hexanamide], which GI50 [1] is on record?
**A.** < 10 µg/mL

**Q.** What about the “increment in early apoptotic cell population with respect to control” value (MCF-7 cells; [2]) of the same molecule?
**A.** 9.58%

**Q.** What about the “increment in late apoptotic cell population with respect to control” value (MCF-7 cells; [2]) of the same molecule?
**A.** 12.6%

**Q.** What about the “increment in early apoptotic cell population with respect to control” value (MCF-7 cells; [3]) of the same molecule?
**A.** 5.61%

**Q.** And the “increment in late apoptotic cell population with respect to control” value (MCF-7 cells; [3])?
**A.** 4.14%

From paper PMC12389269, “Heteroaryl-Capped Hydroxamic Acid Derivatives with Varied Linkers: Synthesis and Anticancer Evaluation with Various Apoptosis Analyses in Breast Cancer Cells, Including Docking, Simulation, DFT, and ADMET Studies” (Pharmaceuticals, 2025)
